Results published in article PMC12136037, “Type II kinase inhibitors that target Parkinson’s disease–associated LRRK2” (Science Advances, 2025).

Columns and labels:
Assay in all cases: DSF 100 kinase selectivity screen;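 also: compound tested at 20 µM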
Type in all cases: binding
[1] = molecular target: T1, ~100 representative kinases (Homo sapiens, UniProt O96013); conditions: protein PAK4; average of three replicates
T1 construct: Recombinant protein kinase domains with a concentration of 2 μM
Outline: (§1)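 Each kinase domain, at 2 μM, is mixed with 20 μM test compound and SYPRO Orange in Hepes (20 mM, pH 7.5) with 500 mM NaCl. Temperature is then raised at 3°C/min and fluorescence-monitored unfolding yields the melting temperature change, ΔTm in degrees Celsius.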

[2] = molecular target: T2, ~100 representative kinases (Homo sapiens, UniProt P17948); conditions: protein FLT1; average of three replicates
T2 construct: Recombinant protein kinase domains with a concentration of 2 μM
Outline: as §1

[3] = molecular target: T3, ~100 representative kinases (Homo sapiens, UniProt P53355); conditions: Protein DAPK1; average of three replicates
T3 construct: Recombinant protein kinase domains with a concentration of 2 μM
Outline: as §1

[4] = molecular target: T4, ~100 representative kinases (Homo sapiens, UniProt P21802); conditions: protein FGFR2; average of three replicates
T4 construct: Recombinant protein kinase domains with a concentration of 2 μM
Outline: as §1

[5] = molecular target: T5, ~100 representative kinases (Homo sapiens, UniProt P34947); conditions: protein GPRK5; average of three replicates
T5 construct: Recombinant protein kinase domains with a concentration of 2 μM
Outline: as §1

[6] = molecular target: T6, ~100 representative kinases (Homo sapiens, UniProt Q8TD08); conditions: protein MAPK15; average of three replicates
T6 construct: Recombinant protein kinase domains with a concentration of 2 μM
T6 sequence (Q8TD08 1-544): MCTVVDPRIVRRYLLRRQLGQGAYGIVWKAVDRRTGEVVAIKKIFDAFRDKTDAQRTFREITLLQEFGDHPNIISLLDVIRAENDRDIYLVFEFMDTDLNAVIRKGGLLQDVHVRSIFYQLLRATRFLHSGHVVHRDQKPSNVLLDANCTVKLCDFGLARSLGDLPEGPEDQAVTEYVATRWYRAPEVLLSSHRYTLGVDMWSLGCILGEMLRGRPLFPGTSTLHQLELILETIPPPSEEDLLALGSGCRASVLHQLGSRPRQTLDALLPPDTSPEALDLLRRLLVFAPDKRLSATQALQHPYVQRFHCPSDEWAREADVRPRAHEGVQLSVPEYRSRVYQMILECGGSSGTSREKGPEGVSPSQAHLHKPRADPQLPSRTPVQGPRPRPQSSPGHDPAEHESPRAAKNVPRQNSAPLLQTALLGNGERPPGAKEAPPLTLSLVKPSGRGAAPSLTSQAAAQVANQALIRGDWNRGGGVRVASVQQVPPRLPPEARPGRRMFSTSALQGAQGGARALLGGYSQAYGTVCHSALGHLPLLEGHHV
Outline: as §1

[7] = molecular target: T7, ~100 representative kinases (Homo sapiens, UniProt Q2M2I8); conditions: Protein AAK1; average of three replicates
T7 construct: Recombinant protein kinase domains with a concentration of 2 μM
Outline: as §1

[8] = molecular target: T8, ~100 representative kinases (Homo sapiens, UniProt Q86V86); conditions: protein PIM3; average of three replicates
T8 construct: Recombinant protein kinase domains with a concentration of 2 μM
Outline: as §1

[9] = molecular target: T9, ~100 representative kinases (Homo sapiens, UniProt P51813); conditions: Protein BMX; average of three replicates
T9 construct: Recombinant protein kinase domains with a concentration of 2 μM
T9 sequence (P51813 1-675): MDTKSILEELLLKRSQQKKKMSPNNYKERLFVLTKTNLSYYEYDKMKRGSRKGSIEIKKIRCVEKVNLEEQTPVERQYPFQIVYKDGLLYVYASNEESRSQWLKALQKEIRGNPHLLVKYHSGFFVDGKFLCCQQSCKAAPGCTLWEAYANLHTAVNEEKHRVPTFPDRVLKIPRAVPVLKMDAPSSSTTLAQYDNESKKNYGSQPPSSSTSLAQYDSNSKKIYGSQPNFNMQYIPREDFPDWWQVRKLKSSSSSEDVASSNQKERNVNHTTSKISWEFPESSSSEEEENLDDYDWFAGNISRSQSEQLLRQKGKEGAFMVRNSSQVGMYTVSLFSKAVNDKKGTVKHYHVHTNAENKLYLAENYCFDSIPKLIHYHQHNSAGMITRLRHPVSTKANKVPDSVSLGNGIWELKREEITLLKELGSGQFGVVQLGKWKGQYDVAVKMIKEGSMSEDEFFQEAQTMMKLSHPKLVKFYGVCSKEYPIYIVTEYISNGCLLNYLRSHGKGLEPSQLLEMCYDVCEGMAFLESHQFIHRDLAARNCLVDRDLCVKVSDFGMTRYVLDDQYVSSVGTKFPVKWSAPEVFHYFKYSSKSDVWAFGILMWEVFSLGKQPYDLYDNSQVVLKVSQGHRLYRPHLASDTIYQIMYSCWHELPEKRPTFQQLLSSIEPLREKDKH
Outline: as §1

[10] = molecular target: T10, ~100 representative kinases (Homo sapiens, UniProt Q96L34); conditions: protein MARK4; average of three replicates
T10 construct: Recombinant protein kinase domains with a concentration of 2 μM
T10 sequence (Q96L34 1-752): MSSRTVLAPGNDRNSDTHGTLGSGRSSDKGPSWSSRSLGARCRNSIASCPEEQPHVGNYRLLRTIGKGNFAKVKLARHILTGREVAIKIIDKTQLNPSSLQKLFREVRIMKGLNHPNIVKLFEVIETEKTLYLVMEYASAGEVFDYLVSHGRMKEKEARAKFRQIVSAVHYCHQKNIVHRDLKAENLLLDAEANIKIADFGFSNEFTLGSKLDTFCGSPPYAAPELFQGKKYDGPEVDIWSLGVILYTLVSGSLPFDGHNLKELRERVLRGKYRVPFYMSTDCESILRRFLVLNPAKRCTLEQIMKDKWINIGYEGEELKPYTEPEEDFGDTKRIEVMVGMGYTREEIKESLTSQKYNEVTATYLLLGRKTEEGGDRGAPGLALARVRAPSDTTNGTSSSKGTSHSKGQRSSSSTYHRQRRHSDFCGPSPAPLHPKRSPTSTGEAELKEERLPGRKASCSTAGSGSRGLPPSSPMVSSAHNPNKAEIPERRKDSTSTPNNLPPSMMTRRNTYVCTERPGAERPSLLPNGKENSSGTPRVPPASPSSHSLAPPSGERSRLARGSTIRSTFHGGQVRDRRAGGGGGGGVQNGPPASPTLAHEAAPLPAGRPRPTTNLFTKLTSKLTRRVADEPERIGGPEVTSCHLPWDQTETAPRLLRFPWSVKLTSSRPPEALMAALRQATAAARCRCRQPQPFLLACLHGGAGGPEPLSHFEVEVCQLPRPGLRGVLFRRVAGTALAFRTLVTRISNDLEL
Outline: as §1

T2 sequence (P17948 27-1338): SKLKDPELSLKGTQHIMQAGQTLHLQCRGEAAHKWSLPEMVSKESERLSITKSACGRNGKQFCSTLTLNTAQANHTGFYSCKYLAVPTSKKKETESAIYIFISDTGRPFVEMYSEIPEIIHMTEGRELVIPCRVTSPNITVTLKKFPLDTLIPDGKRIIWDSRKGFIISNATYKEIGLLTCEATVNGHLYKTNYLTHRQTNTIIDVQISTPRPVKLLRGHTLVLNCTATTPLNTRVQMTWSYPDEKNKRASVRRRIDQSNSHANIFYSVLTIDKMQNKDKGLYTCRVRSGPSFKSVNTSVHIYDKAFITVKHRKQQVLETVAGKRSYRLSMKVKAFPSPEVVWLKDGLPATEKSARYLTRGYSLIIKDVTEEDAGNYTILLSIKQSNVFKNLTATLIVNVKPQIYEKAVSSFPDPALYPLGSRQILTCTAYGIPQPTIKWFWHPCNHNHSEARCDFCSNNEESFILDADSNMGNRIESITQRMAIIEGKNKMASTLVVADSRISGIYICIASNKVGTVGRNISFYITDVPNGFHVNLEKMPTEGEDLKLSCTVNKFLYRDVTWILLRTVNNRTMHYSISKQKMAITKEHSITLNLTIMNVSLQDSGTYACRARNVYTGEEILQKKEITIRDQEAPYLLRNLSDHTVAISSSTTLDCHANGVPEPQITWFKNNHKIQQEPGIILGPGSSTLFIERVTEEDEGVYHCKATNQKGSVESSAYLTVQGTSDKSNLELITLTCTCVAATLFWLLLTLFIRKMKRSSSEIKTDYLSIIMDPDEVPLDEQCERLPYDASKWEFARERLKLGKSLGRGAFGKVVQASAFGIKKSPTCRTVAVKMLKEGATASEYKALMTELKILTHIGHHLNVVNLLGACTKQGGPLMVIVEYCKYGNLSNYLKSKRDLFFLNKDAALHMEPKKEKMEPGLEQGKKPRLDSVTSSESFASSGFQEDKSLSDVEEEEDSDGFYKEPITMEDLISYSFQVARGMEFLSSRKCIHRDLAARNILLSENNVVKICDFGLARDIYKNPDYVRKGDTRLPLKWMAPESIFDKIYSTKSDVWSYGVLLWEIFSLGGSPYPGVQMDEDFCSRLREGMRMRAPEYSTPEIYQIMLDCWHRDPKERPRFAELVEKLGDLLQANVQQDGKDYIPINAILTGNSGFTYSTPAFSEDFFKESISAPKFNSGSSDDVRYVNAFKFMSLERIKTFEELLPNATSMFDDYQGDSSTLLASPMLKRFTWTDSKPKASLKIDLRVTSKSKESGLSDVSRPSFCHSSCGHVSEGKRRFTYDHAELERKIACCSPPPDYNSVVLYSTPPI
T4 sequence (P21802 22-821): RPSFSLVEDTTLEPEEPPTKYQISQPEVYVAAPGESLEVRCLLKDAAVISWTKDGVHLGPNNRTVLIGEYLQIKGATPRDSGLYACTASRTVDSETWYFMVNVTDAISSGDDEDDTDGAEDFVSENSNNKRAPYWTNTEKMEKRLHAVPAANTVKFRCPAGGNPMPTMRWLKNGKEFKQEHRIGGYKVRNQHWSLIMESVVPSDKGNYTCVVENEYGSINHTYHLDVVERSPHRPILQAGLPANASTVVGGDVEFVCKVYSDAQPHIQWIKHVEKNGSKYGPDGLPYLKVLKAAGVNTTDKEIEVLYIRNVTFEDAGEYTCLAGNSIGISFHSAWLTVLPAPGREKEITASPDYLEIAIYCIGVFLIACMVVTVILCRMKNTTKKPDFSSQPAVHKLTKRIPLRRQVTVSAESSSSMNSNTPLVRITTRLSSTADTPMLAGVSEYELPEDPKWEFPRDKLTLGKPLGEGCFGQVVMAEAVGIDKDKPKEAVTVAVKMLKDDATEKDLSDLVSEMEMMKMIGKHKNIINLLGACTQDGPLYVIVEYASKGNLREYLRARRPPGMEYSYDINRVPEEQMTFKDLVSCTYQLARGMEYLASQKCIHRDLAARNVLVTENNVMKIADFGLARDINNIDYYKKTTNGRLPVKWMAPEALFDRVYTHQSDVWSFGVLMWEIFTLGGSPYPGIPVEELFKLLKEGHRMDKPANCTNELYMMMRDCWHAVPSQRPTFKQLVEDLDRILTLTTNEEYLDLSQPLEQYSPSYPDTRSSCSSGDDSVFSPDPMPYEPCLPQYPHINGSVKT
T1 sequence (O96013 whole entry, the tested form may be a part): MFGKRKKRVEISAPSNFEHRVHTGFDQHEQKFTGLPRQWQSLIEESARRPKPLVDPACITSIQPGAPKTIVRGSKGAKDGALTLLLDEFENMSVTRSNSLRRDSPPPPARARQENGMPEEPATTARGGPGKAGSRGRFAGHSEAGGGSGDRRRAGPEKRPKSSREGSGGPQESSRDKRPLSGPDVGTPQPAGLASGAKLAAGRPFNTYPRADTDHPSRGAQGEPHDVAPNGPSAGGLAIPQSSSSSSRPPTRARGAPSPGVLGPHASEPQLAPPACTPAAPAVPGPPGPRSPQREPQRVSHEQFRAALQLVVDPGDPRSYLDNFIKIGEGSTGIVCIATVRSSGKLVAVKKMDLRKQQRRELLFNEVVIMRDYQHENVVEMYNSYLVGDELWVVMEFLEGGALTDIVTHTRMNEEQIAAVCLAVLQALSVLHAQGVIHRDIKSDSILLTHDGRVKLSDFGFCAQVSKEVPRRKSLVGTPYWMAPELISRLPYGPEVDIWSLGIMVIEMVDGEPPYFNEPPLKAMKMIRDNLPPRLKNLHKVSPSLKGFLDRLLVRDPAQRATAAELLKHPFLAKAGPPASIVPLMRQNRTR
T3 sequence (P53355 whole entry, the tested form may be a part): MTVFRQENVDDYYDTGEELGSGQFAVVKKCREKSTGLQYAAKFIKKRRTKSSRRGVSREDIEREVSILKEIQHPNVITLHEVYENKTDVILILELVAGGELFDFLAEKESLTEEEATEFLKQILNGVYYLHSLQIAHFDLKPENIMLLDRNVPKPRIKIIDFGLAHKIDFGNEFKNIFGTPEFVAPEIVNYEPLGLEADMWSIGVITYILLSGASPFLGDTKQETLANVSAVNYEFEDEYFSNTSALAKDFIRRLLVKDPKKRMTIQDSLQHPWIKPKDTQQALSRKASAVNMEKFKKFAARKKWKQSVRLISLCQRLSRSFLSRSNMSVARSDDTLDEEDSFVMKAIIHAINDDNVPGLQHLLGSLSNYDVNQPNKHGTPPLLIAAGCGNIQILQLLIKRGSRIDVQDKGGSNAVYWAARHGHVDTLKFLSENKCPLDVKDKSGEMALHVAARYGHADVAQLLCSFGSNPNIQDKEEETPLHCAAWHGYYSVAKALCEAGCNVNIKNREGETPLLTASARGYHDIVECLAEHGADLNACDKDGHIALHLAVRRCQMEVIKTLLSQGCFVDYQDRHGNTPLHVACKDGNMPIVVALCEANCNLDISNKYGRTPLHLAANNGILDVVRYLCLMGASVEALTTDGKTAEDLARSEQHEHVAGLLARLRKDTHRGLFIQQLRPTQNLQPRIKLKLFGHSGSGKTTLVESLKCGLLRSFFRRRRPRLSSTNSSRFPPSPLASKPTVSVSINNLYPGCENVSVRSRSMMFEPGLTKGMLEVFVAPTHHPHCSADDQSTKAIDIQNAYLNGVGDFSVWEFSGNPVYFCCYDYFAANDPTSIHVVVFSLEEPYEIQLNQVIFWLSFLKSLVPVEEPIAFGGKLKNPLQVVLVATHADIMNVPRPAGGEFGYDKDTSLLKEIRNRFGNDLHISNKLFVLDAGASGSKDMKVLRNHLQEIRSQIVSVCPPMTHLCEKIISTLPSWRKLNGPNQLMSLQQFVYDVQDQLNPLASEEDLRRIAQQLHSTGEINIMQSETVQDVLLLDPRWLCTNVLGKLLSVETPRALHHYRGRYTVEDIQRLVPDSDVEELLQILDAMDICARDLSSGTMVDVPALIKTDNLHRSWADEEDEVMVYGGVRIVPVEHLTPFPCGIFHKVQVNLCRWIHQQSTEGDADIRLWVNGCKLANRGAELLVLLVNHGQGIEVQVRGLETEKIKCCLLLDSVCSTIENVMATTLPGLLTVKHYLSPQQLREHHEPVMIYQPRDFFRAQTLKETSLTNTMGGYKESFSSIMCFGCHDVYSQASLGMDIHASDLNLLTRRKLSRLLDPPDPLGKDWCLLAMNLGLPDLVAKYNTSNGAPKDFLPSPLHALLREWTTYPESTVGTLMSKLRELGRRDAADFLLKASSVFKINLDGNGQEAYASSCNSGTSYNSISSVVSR
T5 sequence (P34947 whole entry, the tested form may be a part): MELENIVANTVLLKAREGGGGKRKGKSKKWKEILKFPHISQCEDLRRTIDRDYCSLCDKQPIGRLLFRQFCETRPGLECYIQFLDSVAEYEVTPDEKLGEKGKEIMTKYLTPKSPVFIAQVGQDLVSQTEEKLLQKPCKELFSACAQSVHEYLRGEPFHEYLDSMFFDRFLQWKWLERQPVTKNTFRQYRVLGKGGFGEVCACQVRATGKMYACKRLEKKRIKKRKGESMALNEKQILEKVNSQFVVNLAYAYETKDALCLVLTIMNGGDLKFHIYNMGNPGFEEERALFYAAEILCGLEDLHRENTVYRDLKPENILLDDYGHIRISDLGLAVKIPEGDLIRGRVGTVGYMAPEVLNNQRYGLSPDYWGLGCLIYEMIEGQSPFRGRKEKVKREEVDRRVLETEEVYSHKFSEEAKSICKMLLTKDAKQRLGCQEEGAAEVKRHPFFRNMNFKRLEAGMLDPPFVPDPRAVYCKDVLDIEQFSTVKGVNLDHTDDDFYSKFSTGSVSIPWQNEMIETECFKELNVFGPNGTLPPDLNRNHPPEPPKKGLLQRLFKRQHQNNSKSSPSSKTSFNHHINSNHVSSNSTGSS

| Compound | dTm [1] | dTm [2] | dTm [3] | dTm [4] | dTm [5] | dTm [6] | dTm [7] | dTm [8] | dTm [9] | dTm [10] |
| --- | --- | --- | --- | --- | --- | --- | --- | --- | --- | --- |
| Cc1ccc(C(=O)Nc2ccc(CN3CCN(C)CC3)c(C(F)(F)F)c2)cc1C#Cc1c[nH]c2ncnc(N3CCOCC3)c12 [Compound 1] | 0.31 K | 4.48 K | 0.30 K | 4.16 K | 0.19 K | 8.49 K | 3.06 K | 2.19 K | 1.60 K | 1.18 K |
| O=C(Nc1ccc(F)cc1)C1(C(=O)Nc2cccc(-c3c[nH]c4ncnc(N5CCOCC5)c34)c2)CC1 [Compound 2] | 0.12 K | 3.90 K | -0.33 K | 2.43 K | -0.82 K | 10.01 K | 3.27 K | -0.94 K | 0.39 K | 3.91 K |
| O=C(Nc1cccc(-c2c[nH]c3ncnc(N4CCOCC4)c23)c1)c1cccn(-c2ccc(F)cc2)c1=O [Compound 4] | -0.78 K | 4.33 K | -0.50 K | 5.86 K | 0.55 K | 7.29 K | 1.95 K | 0.41 K | 1.71 K | 3.88 K |
| Cc1cc(NC(=O)C2(C(=O)Nc3ccc(F)cc3)CC2)cc(-c2c[nH]c3ncnc(N4CCOCC4)c23)c1 [Compound 6] | 0.99 K | 1.73 K | -0.31 K | 1.97 K | 0.0071 K | 5.91 K | 0.52 K | 1.05 K | 0.51 K | -6.12 K |
| O=C(Nc1cccc(-c2c[nH]c3ncnc(N4CCOCC4)c23)c1)C1(C(=O)Nc2cccc3c2CCC3)CC1 [Compound 11] | 0.55 K | 1.96 K | -0.99 K | 2.75 K | -0.20 K | 5.24 K | -0.63 K | 0.61 K | 1.17 K | 0.00 K |
| O=C(Nc1ccccc1)C1(C(=O)Nc2cccc(-c3c[nH]c4ncnc(N5CCOCC5)c34)c2)CC1 [Compound 12] | -0.15 K | 3.09 K | 0.18 K | 2.56 K | 0.86 K | 8.68 K | 3.79 K | 0.88 K | 0.86 K | 3.45 K |
| O=C(Nc1ccc(Cl)cc1)C1(C(=O)Nc2cccc(-c3c[nH]c4ncnc(N5CCOCC5)c34)c2)CC1 [Compound 13] | 1.17 K | 3.57 K | 0.12 K | 3.14 K | 1.38 K | 9.74 K | 3.55 K | 1.90 K | 0.67 K | 5.82 K |
| Cc1ccc(NC(=O)C2(C(=O)Nc3cccc(-c4c[nH]c5ncnc(N6CCOCC6)c45)c3)CC2)cc1 [Compound 14] | -0.55 K | 4.17 K | -0.92 K | 1.78 K | 0.90 K | 5.81 K | 2.28 K | 0.71 K | 0.15 K | 3.97 K |
| CCc1ccc(NC(=O)C2(C(=O)Nc3cccc(-c4c[nH]c5ncnc(N6CCOCC6)c45)c3)CC2)cc1 [Compound 15] | -0.0471 K | 0.00 K | -0.75 K | 2.28 K | 1.27 K | 5.20 K | 2.03 K | 1.24 K | 0.11 K | 4.84 K |
| COc1ccc(NC(=O)C2(C(=O)Nc3cccc(-c4c[nH]c5ncnc(N6CCOCC6)c45)c3)CC2)cc1 [Compound 16] | -0.80 K | 2.53 K | -0.99 K | 1.54 K | 0.44 K | 2.17 K | 1.75 K | 0.23 K | -0.18 K | 2.27 K |
| COc1cc2c(Oc3ccc(NC(=O)C4(C(=O)Nc5ccc(F)cc5)CC4)cc3F)ccnc2cc1OCCCN1CCOCC1 [Foretinib, reference compound] | 0.34 K |  | -0.15 K | 7.20 K | 0.60 K | 8.58 K | 0.82 K | -0.88 K | 6.77 K | 1.64 K |
| Cc1ccc(C(=O)Nc2ccc(CN3CCN(C)CC3)c(C(F)(F)F)c2)cc1C#Cc1cnc2[nH]ncc2c1 [GZD-824, reference compound] | 3.27 K | 22.54 K | 0.59 K | 13.32 K | 0.29 K | 5.29 K | 5.77 K | 0.45 K |  | 1.02 K |
| Cc1ccc(C(=O)Nc2ccc(CN3CCN(C)CC3)c(C(F)(F)F)c2)cc1C#Cc1cnc2cccnn12 [Ponatinib, reference compound] |  | 18.52 K |  | 12.49 K |  |  |  |  |  | -0.48 K |
| CNC(=O)c1cc(Oc2ccc(NC(=O)Nc3cc(C(C)(C)C)nn3-c3ccc4ncccc4c3)c(F)c2)ccn1 [Rebastinib, reference compound] | 4.23 K |  | -1.01 K | 10.35 K | 0.59 K | 14.70 K | 0.20 K | 6.29 K | 7.16 K | 2.04 K |
| CN[C@@H]1C[C@H]2O[C@@](C)([C@@H]1OC)n1c3ccccc3c3c4c(c5c6ccccc6n2c5c31)C(=O)NC4 [Staurosporine] |  | 13.08 K | 9.84 K |  | 7.02 K |  | 12.42 K | 16.71 K |  | 15.90 K |
